PubChem BioAssay (NCI)
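48-hour exposure; five concentrations; linearly interpolated endpoints. GI50 is the concentration that inhibits growth by half. At the TGI there is no net growth.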

Experiments:
Assay in all cases: NCI tumour cell line growth inhibition, 48 h
A498 renal = tested on: A498 renal
A549 NSCLC = tested on: A549 NSCLC
CCRF-CEM leukemia = tested on: CCRF-CEM leukemia
COLO 205 colon = tested on: COLO 205 colon
DLD-1 colon = tested on: DLD-1 colon
DMS 114 small cell lung = tested on: DMS 114 small cell lung
DMS 273 small cell lung = tested on: DMS 273 small cell lung
EKVX NSCLC = tested on: EKVX NSCLC
HCC-2998 colon = tested on: HCC-2998 colon
HCT-116 colon = tested on: HCT-116 colon
HCT-15 colon = tested on: HCT-15 colon
HL-60(TB) leukemia = tested on: HL-60(TB) leukemia
HOP-18 NSCLC = tested on: HOP-18 NSCLC
HOP-62 NSCLC = tested on: HOP-62 NSCLC
HOP-92 NSCLC = tested on: HOP-92 NSCLC
HT29 colon = tested on: HT29 colon
IGROV1 ovarian = tested on: IGROV1 ovarian
K-562 leukemia = tested on: K-562 leukemia
KM12 colon = tested on: KM12 colon
KM20L2 colon = tested on: KM20L2 colon
LOX IMVI melanoma = tested on: LOX IMVI melanoma
M19-MEL melanoma = tested on: M19-MEL melanoma
MALME-3M melanoma = tested on: MALME-3M melanoma
MCF7 breast = tested on: MCF7 breast
MOLT-4 leukemia = tested on: MOLT-4 leukemia
NCI-H226 lung = tested on: NCI-H226 lung
NCI-H23 lung = tested on: NCI-H23 lung
NCI-H460 lung = tested on: NCI-H460 lung
NCI-H522 lung = tested on: NCI-H522 lung
NCI/ADR-RES ovarian = tested on: NCI/ADR-RES ovarian
OVCAR-3 ovarian = tested on: OVCAR-3 ovarian
OVCAR-4 ovarian = tested on: OVCAR-4 ovarian
OVCAR-5 ovarian = tested on: OVCAR-5 ovarian
OVCAR-8 ovarian = tested on: OVCAR-8 ovarian
P388 leukemia = tested on: P388 leukemia
P388/ADR leukemia = tested on: P388/ADR leukemia
RPMI-8226 leukemia = tested on: RPMI-8226 leukemia
RXF 393 renal = tested on: RXF 393 renal
SF-268 CNS = tested on: SF-268 CNS
SF-295 CNS = tested on: SF-295 CNS
SF-539 CNS = tested on: SF-539 CNS
SK-MEL-2 melanoma = tested on: SK-MEL-2 melanoma
SK-MEL-28 melanoma = tested on: SK-MEL-28 melanoma
SK-MEL-5 melanoma = tested on: SK-MEL-5 melanoma
SK-OV-3 ovarian = tested on: SK-OV-3 ovarian
SN12C renal = tested on: SN12C renal
SN12K1 renal = tested on: SN12K1 renal
SNB-19 CNS = tested on: SNB-19 CNS
SNB-75 CNS = tested on: SNB-75 CNS
SNB-78 CNS = tested on: SNB-78 CNS
SW-620 colon = tested on: SW-620 colon
U251 CNS = tested on: U251 CNS
UACC-257 melanoma = tested on: UACC-257 melanoma
UACC-62 melanoma = tested on: UACC-62 melanoma
UO-31 renal = tested on: UO-31 renal
XF 498 CNS = tested on: XF 498 CNS
CAKI-1 renal = tested on: CAKI-1 renal

Q: Which results are given for Cc1c2c(cc3c1[nH]c1ccccc13)C(c1ccc(Cl)cc1)=NCC2?
A: TGI (A498 renal): 10.2 µM; TGI (A549 NSCLC): 11.8 µM; TGI (CCRF-CEM leukemia): 8.54 µM; TGI (COLO 205 colon): 13.2 µM; TGI (DLD-1 colon): 19 µM; TGI (DMS 114 small cell lung): 3.87 µM; TGI (DMS 273 small cell lung): 2.62 µM; TGI (EKVX NSCLC): 35.1 µM; TGI (HCC-2998 colon): 10.7 µM; TGI (HCT-116 colon): 12.7 µM; TGI (HCT-15 colon): 9.89 µM; TGI (HL-60(TB) leukemia): 0.717 µM; TGI (HOP-18 NSCLC): 10.6 µM; TGI (HOP-62 NSCLC): 11.2 µM; TGI (HOP-92 NSCLC): 30.8 µM; TGI (HT29 colon): 0.687 µM; TGI (IGROV1 ovarian): 24.1 µM; TGI (K-562 leukemia): 8.87 µM; TGI (KM12 colon): 18.2 µM; TGI (KM20L2 colon): 0.809 µM; TGI (LOX IMVI melanoma): 11.4 µM; TGI (M19-MEL melanoma): 88.8 µM; TGI (MALME-3M melanoma): 55.9 µM; TGI (MCF7 breast): 7.32 µM; TGI (MOLT-4 leukemia): 1.79 µM; TGI (NCI-H226 lung): 6.82 µM; TGI (NCI-H23 lung): 2.98 µM; TGI (NCI-H460 lung): 1.33 µM; TGI (NCI-H522 lung): 4.45 µM; TGI (NCI/ADR-RES ovarian): 1.39 µM; TGI (OVCAR-3 ovarian): 1.78 µM; TGI (OVCAR-4 ovarian): 6.49 µM; TGI (OVCAR-5 ovarian): 33.7 µM; TGI (OVCAR-8 ovarian): 7.14 µM; TGI (P388 leukemia): 1.47 µM; TGI (P388/ADR leukemia): 18.4 µM; TGI (RPMI-8226 leukemia): 8.23 µM; TGI (RXF 393 renal): 2.45 µM; TGI (SF-268 CNS): 22 µM; TGI (SF-295 CNS): 0.718 µM; TGI (SF-539 CNS): 2.53 µM; TGI (SK-MEL-2 melanoma): 7.9 µM; TGI (SK-MEL-28 melanoma): 61.2 µM; TGI (SK-MEL-5 melanoma): 3.83 µM; TGI (SK-OV-3 ovarian): 9.23 µM; TGI (SN12C renal): 3.46 µM; TGI (SN12K1 renal): 0.829 µM; TGI (SNB-19 CNS): 1.72 µM; TGI (SNB-75 CNS): 1.42 µM; TGI (SNB-78 CNS): 27.1 µM; TGI (SW-620 colon): 19 µM; TGI (U251 CNS): 5.7 µM; TGI (UACC-257 melanoma): 43.9 µM; TGI (UACC-62 melanoma): 17.6 µM; TGI (UO-31 renal): 8.99 µM; TGI (XF 498 CNS): 0.0949 µM

Q: Which results are given for NC1CCCCC1N.Nc1c(N=Nc2ccc(-c3ccc(N=Nc4cc(S(=O)(=O)[O-])c5ccccc5c4N)cc3)cc2)cc(S(=O)(=O)[O-])c2ccccc12.[OH3+].[OH3+].[Pt+4]?
A: GI50 (A498 renal): > 100 µM; TGI (A498 renal): > 100 µM; GI50 (A549 NSCLC): > 76.5 µM; TGI (A549 NSCLC): > 100 µM; GI50 (CAKI-1 renal): > 39.9 µM; TGI (CAKI-1 renal): > 56.9 µM; GI50 (CCRF-CEM leukemia): 29.2 µM; TGI (CCRF-CEM leukemia): > 79.3 µM; GI50 (COLO 205 colon): 17.1 µM; TGI (COLO 205 colon): 32.9 µM; GI50 (DLD-1 colon): 21.1 µM; TGI (DLD-1 colon): 43.5 µM; GI50 (DMS 273 small cell lung): 59.2 µM; TGI (DMS 273 small cell lung): > 100 µM; GI50 (EKVX NSCLC): 33.8 µM; TGI (EKVX NSCLC): 81.7 µM; GI50 (HCC-2998 colon): > 90.9 µM; TGI (HCC-2998 colon): > 100 µM; GI50 (HCT-116 colon): > 96.1 µM; TGI (HCT-116 colon): > 100 µM; GI50 (HCT-15 colon): > 43.3 µM; TGI (HCT-15 colon): > 59.6 µM; GI50 (HL-60(TB) leukemia): 21.2 µM; TGI (HL-60(TB) leukemia): 50.9 µM; GI50 (HOP-18 NSCLC): 24.5 µM; TGI (HOP-18 NSCLC): 53.3 µM; GI50 (HOP-62 NSCLC): > 100 µM; TGI (HOP-62 NSCLC): > 100 µM; GI50 (HOP-92 NSCLC): 14.2 µM; TGI (HOP-92 NSCLC): 19.9 µM; GI50 (HT29 colon): 20.1 µM; TGI (HT29 colon): 38.8 µM; GI50 (IGROV1 ovarian): 48.5 µM; TGI (IGROV1 ovarian): > 100 µM; GI50 (K-562 leukemia): 25 µM; TGI (K-562 leukemia): 64.2 µM; GI50 (KM12 colon): > 60.5 µM; TGI (KM12 colon): > 100 µM; GI50 (KM20L2 colon): > 100 µM; TGI (KM20L2 colon): > 100 µM; GI50 (LOX IMVI melanoma): > 52.2 µM; TGI (LOX IMVI melanoma): > 80.7 µM; GI50 (MALME-3M melanoma): 15.4 µM; TGI (MALME-3M melanoma): 22.2 µM; GI50 (MCF7 breast): 30.9 µM; TGI (MCF7 breast): > 100 µM; GI50 (MOLT-4 leukemia): 21.1 µM; TGI (MOLT-4 leukemia): 54.6 µM; GI50 (NCI-H226 lung): > 52.6 µM; TGI (NCI-H226 lung): > 100 µM; GI50 (NCI-H23 lung): 67.9 µM; TGI (NCI-H23 lung): > 100 µM; GI50 (NCI-H460 lung): 40 µM; TGI (NCI-H460 lung): > 100 µM; GI50 (NCI-H522 lung): 19.6 µM; TGI (NCI-H522 lung): 37.9 µM; GI50 (NCI/ADR-RES ovarian): 20.9 µM; TGI (NCI/ADR-RES ovarian): 43 µM; GI50 (OVCAR-3 ovarian): 42.8 µM; TGI (OVCAR-3 ovarian): > 60.1 µM; GI50 (OVCAR-4 ovarian): 35.3 µM; TGI (OVCAR-4 ovarian): > 93 µM; GI50 (OVCAR-5 ovarian): > 100 µM; TGI (OVCAR-5 ovarian): > 100 µM; GI50 (OVCAR-8 ovarian): 26.8 µM; TGI (OVCAR-8 ovarian): > 68.1 µM; GI50 (P388 leukemia): 26.3 µM; TGI (P388 leukemia): 90.5 µM; GI50 (P388/ADR leukemia): 22.6 µM; TGI (P388/ADR leukemia): > 62 µM; GI50 (RPMI-8226 leukemia): 25.2 µM; TGI (RPMI-8226 leukemia): 66.3 µM; GI50 (RXF 393 renal): 20.3 µM; TGI (RXF 393 renal): 68.5 µM; GI50 (SF-268 CNS): > 78.6 µM; TGI (SF-268 CNS): > 100 µM; GI50 (SF-295 CNS): > 100 µM; TGI (SF-295 CNS): > 100 µM; GI50 (SF-539 CNS): > 100 µM; TGI (SF-539 CNS): > 100 µM; GI50 (SK-MEL-2 melanoma): 45.6 µM; TGI (SK-MEL-2 melanoma): > 100 µM; GI50 (SK-MEL-28 melanoma): 22 µM; TGI (SK-MEL-28 melanoma): 42.2 µM; GI50 (SK-MEL-5 melanoma): 33 µM; TGI (SK-MEL-5 melanoma): > 83.9 µM; GI50 (SK-OV-3 ovarian): > 100 µM; TGI (SK-OV-3 ovarian): > 100 µM; GI50 (SN12C renal): > 56.9 µM; TGI (SN12C renal): > 100 µM; GI50 (SN12K1 renal): 27.3 µM; TGI (SN12K1 renal): > 58.2 µM; GI50 (SNB-19 CNS): > 100 µM; TGI (SNB-19 CNS): > 100 µM; GI50 (SNB-75 CNS): > 77.2 µM; TGI (SNB-75 CNS): > 100 µM; GI50 (SNB-78 CNS): > 76.5 µM; TGI (SNB-78 CNS): > 100 µM; GI50 (SW-620 colon): 25.2 µM; TGI (SW-620 colon): 49.4 µM; GI50 (U251 CNS): > 100 µM; TGI (U251 CNS): > 100 µM; GI50 (UACC-257 melanoma): 18.1 µM; TGI (UACC-257 melanoma): 34.7 µM; GI50 (UACC-62 melanoma): 61.4 µM; TGI (UACC-62 melanoma): > 100 µM; GI50 (UO-31 renal): > 100 µM; TGI (UO-31 renal): > 100 µM; GI50 (XF 498 CNS): 20.4 µM; TGI (XF 498 CNS): 42 µM
